The values below come from ChEMBL document CHEMBL3872216, “Modulatory effects of silibinin in various cell signaling pathways against liver disorders and cancer - A comprehensive review” (Eur J Med Chem, 2016).

In general, IC50 refers to the concentration that gives 50% inhibition.

Experiment [1] can be described thus: Cytotoxicity against human T47D cells assessed as reduction in cell viability after 24 hrs by MTT assay. Type of experiment: functional, cell-based. Background: Tetrazolium dyes change colour on reduction, which living cells bring about.
The nature of experiment [2]: Cytotoxicity against human PC3 cells assessed as cell growth inhibition at 200 uM after 48 hrs by MTT assay relative to control. Type of experiment: functional. Conditions: PC-3, 48 h, read-out: GI.
A short description of experiment [3]: Cytotoxicity against human T47D cells assessed as reduction in cell viability after 24 hrs in presence of curcumin by MTT assay. It counts as functional, cell-based.
The nature of experiment [4]: Cytotoxicity against human ARCaPM cells assessed as cell growth inhibition at 200 uM after 48 hrs by MTT assay relative to control. Type of experiment: functional. Conditions: read-out: GI.
The next experiment deals with Cytochrome P450 2C9 (Homo sapiens, UniProt P11712). Description: Inhibition of CYP2C9 in human liver microsomes using (S)-warfarin as substrate at after 30 mins by LC-MS/MS analysis. It counts as ADME. (Liver microsomes are vesicles of endoplasmic reticulum, rich in cytochrome P450 enzymes.)
A short description of experiment [5]: Antitumor activity against wild type B6/129PF2 mouse lung tumor assessed reduction in urethane-induced tumor growth at 742 mg/kg, po administered via gavage for 5 days per week for 18 weeks starting from 8 weeks after urethane injection measured 25 weeks after first urethane injection. It counts as functional. As to conditions: B6/129PF2, po, read-out: TGI.

Experiment [6] is described as follows: Cytotoxicity against human DU145 cells assessed as cell growth inhibition at 100 uM after 48 hrs in presence of 25 nM doxorubicin by manual cell counting. It counts as functional, DU-145.
Experiment [7] can be described thus: Cytotoxicity against human DU145 cells assessed as cell growth inhibition at 200 uM after 48 hrs by MTT assay relative to control. As to conditions: DU-145, 48 h, read-out: GI. Type of experiment: functional.
Experiment [8] in a line: Antitumor activity against human HT-29 cells xenografted in nude mouse assessed as tumor growth inhibition at 200 mg/kg, po administered 5 days per week for 32 days. Conditions: HT-29, po, read-out: TGI. Type of experiment: functional. For orientation: In xenograft studies the graft and the host belong to different species.
A short description of experiment [9]: Cytotoxicity against human LoVo cells assessed as reduction in cell growth after 24 hrs by trypan blue exclusion assay. It counts as functional, cell-based.
A short description of experiment [10]: Cytotoxicity against human LNCAP cells assessed as cell growth inhibition at 25 uM after 48 hrs in presence of 15 nM doxorubicin by manual cell counting. Type of experiment: functional.
Experiment [11] in a line: Cytotoxicity against human LNCAP cells assessed as cell growth inhibition at 200 uM after 48 hrs by MTT assay relative to control. It counts as functional. As to conditions: read-out: GI.
Experiment [12] is described as follows: Cytotoxicity against human LoVo cells assessed as reduction in cell growth at 50 to 200 uM after 24 hrs by trypan blue exclusion assay. It counts as functional.
Experiment [13] can be described thus: Downregulation of telomerase expression in human T47D cells after 72 hrs in presence of curcumin by SYBR green-dye based RT-PCR analysis. Type of experiment: functional, cell-based.
The test system of the next experiment is Hepatitis C virus. In words: Antiviral activity against Hepatitis C virus in liver transplanted patient with established HCV recurrence assessed as reduction in viral load at 20 mg/kg, iv administered for 14 days. It counts as functional, Hepacivirus hominis.
The nature of experiment [14]: Antitumor activity against humanPC3 cells xenografted in nude mouse assessed as tumor growth inhibition at 100 mg/kg, po administered via gavage for 5 days per week for 7 weeks relative to control. As to conditions: Homo sapiens, PC-3, po; read-out: TGI. It counts as functional.

Molecules are shown by their SMILES.

Chain of Cytochrome P450 2C9 (P11712 whole entry): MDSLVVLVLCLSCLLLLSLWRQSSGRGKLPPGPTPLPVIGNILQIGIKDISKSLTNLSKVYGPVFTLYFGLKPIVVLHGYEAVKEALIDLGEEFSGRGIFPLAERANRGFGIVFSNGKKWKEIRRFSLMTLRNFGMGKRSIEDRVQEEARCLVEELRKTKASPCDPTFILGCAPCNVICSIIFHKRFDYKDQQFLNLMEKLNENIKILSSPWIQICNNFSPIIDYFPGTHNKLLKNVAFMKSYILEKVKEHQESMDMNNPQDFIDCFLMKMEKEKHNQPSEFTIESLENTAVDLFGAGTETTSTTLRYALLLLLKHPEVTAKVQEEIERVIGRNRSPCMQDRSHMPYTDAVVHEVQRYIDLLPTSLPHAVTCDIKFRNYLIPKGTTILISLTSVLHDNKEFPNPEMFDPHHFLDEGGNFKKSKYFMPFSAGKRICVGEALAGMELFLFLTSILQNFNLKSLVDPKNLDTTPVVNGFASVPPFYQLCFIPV

Consider `COc1cc(/C=C/C(=O)CC(=O)/C=C/c2ccc(O)c(OC)c2)ccc1O` [CURCUMIN], for which the half-maximal inhibitory concentration (IC50) in experiment [1] was 30 µM.

Take `COc1cc([C@H]2Oc3cc([C@H]4Oc5cc(O)cc(O)c5C(=O)[C@@H]4O)ccc3O[C@@H]2CO)ccc1O` [SILYBIN A]: the inhibition of growth at 200 µM in experiment [2] came to 60%; in experiment [4], 18.5%; in [7] it was 73.8%; in experiment [11], 48.7%. Also, the 50% inhibitory concentration (IC50) was 20 µM in [3]; 18 µM at Cytochrome P450 2C9; 110 µM in [1]; 50 to 200 µM in experiment [9]; 12 µM in experiment [13]. In [5], the inhibition in vivo at 742 mg/kg was 71%. Moreover, the “growth inhibition (GI)” value in experiment [6] was 74 - 87%; in experiment [10], 62 - 69%; in experiment [12], 30 - 49%. Further, the inhibition in vivo at 200 mg/kg in [8] was not above 48%. Moreover, the Activity with Hepatitis C virus is on record as 2.3. Besides, in [14], the inhibition in vivo at 100 mg/kg was 40%.
